In BindingDB's records for doi:10.1016/j.bmcl.2009.08.014 (Wuxi Pharmatech, 2009):

Assay: Antagonist activity at CXCR2 expressed in CHO cells assessed as inhibition of IL-8-induced chemotaxis

Row | SMILES | IC50
1 | CCN(Nc1c(Nc2cccc(C(=O)N(C)C)c2O)c(=O)c1=O)C(C)=O [3-(2-(2-acetyl-2-ethylhydrazinyl)-3,4-dioxocyclobut-1-enylamino)-2-hydroxy-N,N-dimethylbenzamide] | 1250 nM
2 | CCN(Cc1ccc(F)cc1)Nc1c(Nc2cccc(C(=O)N(C)C)c2O)c(=O)c1=O [3-(2-(2-ethyl-2-(4-fluorobenzyl)hydrazinyl)-3,4-dioxocyclobut-1-enylamino)-2-hydroxy-N,N-dimethylbenzamide] | 6340 nM
3 | CCN(Nc1c(Nc2cccc(C(=O)N(C)C)c2O)c(=O)c1=O)c1ccc(F)cc1 [3-(2-(2-ethyl-2-(4-fluorophenyl)hydrazinyl)-3,4-dioxocyclobut-1-enylamino)-2-hydroxy-N,N-dimethylbenzamide] | 840 nM

Next, values leading:

Row | IC50 | SMILES
4 | 54 nM | CCN(Nc1c(Nc2cccc(C(=O)N(C)C)c2O)c(=O)c1=O)c1ccccc1 [3-(2-(2-ethyl-2-phenylhydrazinyl)-3,4-dioxocyclobut-1-enylamino)-2-hydroxy-N,N-dimethylbenzamide]
5 | 75 nM | CCN(Nc1c(Nc2cccc(C(=O)N(C)C)c2O)c(=O)c1=O)c1ccccn1 [3-(2-(2-ethyl-2-(pyridin-2-yl)hydrazinyl)-3,4-dioxocyclobut-1-enylamino)-2-hydroxy-N,N-dimethylbenzamide]
6 | 840 nM | CCN(Nc1c(Nc2cccc(C(=O)N(C)C)c2O)c(=O)c1=O)C(=O)c1ccc(F)cc1 [3-(2-(2-ethyl-2-(4-fluorobenzoyl)hydrazinyl)-3,4-dioxocyclobut-1-enylamino)-2-hydroxy-N,N-dimethylbenzamide]
7 | 46 nM | CCN(CC)Nc1c(Nc2cccc(C(=O)N(C)C)c2O)c(=O)c1=O [3-(2-(2,2-diethylhydrazinyl)-3,4-dioxocyclobut-1-enylamino)-2-hydroxy-N,N-dimethylbenzamide]
8 | 100 nM | CCN(Nc1c(Nc2cccc(C(=O)N(C)C)c2O)c(=O)c1=O)c1ccc(OC)cc1 [3-(2-(2-ethyl-2-(4-methoxyphenyl)hydrazinyl)-3,4-dioxocyclobut-1-enylamino)-2-hydroxy-N,N-dimethylbenzamide]
